Where two headings read alike, the source gives them in different places.
What was measured:
[1] = system: P3 mouse cochlear explants; assay: Cochlear explant cultures treated with cisplatin, outer hair cell counts; conditions: for Protection at higher doses in explants treated with cisplatin: dose-response
[2] = weekly dosing schedule, phase I study; cited from earlier work
[3] = system: outer hair cells, 32-kHz region of the organ of Corti; assay: Morphologic analysis and OHC counts of cochleae from cisplatin-treated mice; assay type: in vivo, mouse
[4] = system: cisplatin-induced ototoxicity in adult FVB mice; assay type: in vivo, mouse; conditions: 50 μM transtympanic
[5] = system: cisplatin-induced ototoxicity in adult FVB mice; conditions: earlier study of the authors; cited from earlier work
adult FVB mice = assay: Toxicity of compound alone delivered transtympanically; conditions: 2, 10 or 50 μM, single transtympanic injection, 15 days after injection
Cdk2/Cyclin A = Cdk2/Cyclin A (Homo sapiens, UniProt P24941); assay: CDK2 inhibition assay; assay type: biochemical

## O=C(NC1CCNCC1)c1n[nH]cc1NC(=O)c1c(Cl)cccc1Cl [AT7519, N-(4-piperidinyl)-4-(2,6-dichlorobenzoylamino)-1H-pyrazole-3-carboxamide]
[1]; compound 25 nM, cisplatin 150 μM
  Protection in cochlear explant cultures treated with cisplatin: excellent protection
[1]
  Protection at higher doses in explants treated with cisplatin: loss of activity was observed at higher doses

## Cc1ncc(-c2ccnc(Nc3ccc(S(C)(=O)=O)cc3)n2)n1C(C)C [AZD5438]
[2]
  Safety and tolerability in patients: safe and well tolerated
[3]; 50 μM transtympanic 1 h before and 24 h after cisplatin
  OHC loss in the 32-kHz region: virtually no OHC loss
[4]
  Overall protection against cisplatin-induced ototoxicity in mice: fully protective

## O=C1Cc2c([nH]c3ccc(Br)cc23)-c2ccccc2N1 [Kenpaullone]
[5]
  Overall protection against cisplatin-induced ototoxicity in mice: complete protection

## O=C(N[C@H]1CC[C@H](O)CC1)c1n[nH]cc1NC(=O)c1c(F)cccc1F [analog 7]
[3]; 50 μM transtympanic 1 h before cisplatin
  OHC loss in middle basal turn (32-kHz region) vs cisplatin alone: Substantially less OHC loss
[1]; compound 150 nM, P3 mouse explants, OHC counts
  Protection against cisplatin toxicity in cochlear explants: significant protection
[1]
  Protection at higher doses in explants treated with cisplatin: maintains the level of protection at higher doses
Adult FVB mice
  Toxicity in the ears of mice in the absence of cisplatin: nontoxic
[4]
  Overall protection against cisplatin-induced ototoxicity in mice: some—but not complete—protection

## O=C(NC1CCN(C(=O)c2c(Cl)cccc2Cl)CC1)c1n[nH]cc1NC(=O)c1c(Cl)cccc1Cl [analog 14]
Cdk2/Cyclin A
  IC50: 0.76 µM

## AZD1080
[1]; read-out: Explant EC50, estimated EC50 based on 2–3 tested dose concentrations, cisplatin 150 μM
  EC50: 15 µM
